{"source": "ChEMBL document CHEMBL1121668", "about": "“(Phenylthio)phenylamine derivatives as potential antiinflammatory compounds” (J Med Chem, 1981)", "key": {"[1]": {"test": "Lethal dose is determined in mice (iv)", "format": "toxicity, organism-based", "settings": "mouse, in vivo"}, "Rattus norvegicus [2]": {"tested_on": "Rattus norvegicus", "test": "Compound is evaluated for antiinflammatory activity using carrageenan-induced paw edema method in rat at a dose 500 mg/kg ip after 2 hr", "format": "functional", "settings": "route intraperitoneal"}, "Rattus norvegicus [3]": {"tested_on": "Rattus norvegicus", "test": "Compound is evaluated for antiinflammatory activity using carrageenan-induced paw edema method in rat at a dose 500 mg/kg ip after 1 hr", "format": "functional", "settings": "route intraperitoneal"}, "Rattus norvegicus [4]": {"tested_on": "Rattus norvegicus", "test": "Compound is evaluated for antiinflammatory activity using carrageenan-induced paw edema method in rat at a dose 500 mg/kg ip after 3h", "format": "functional", "settings": "route intraperitoneal"}, "Rattus norvegicus [5]": {"tested_on": "Rattus norvegicus", "test": "Compound is evaluated for antiinflammatory activity using carrageenan-induced paw edema method in rat at a dose 25 mg/kg ip after 2 hr", "format": "functional", "settings": "route intraperitoneal"}, "Rattus norvegicus [6]": {"tested_on": "Rattus norvegicus", "test": "Compound is evaluated for antiinflammatory activity using carrageenan-induced paw edema method in rat at a dose 25 mg/kg ip after 3h", "format": "functional", "settings": "route intraperitoneal"}, "Rattus norvegicus [7]": {"tested_on": "Rattus norvegicus", "test": "Compound is evaluated for antiinflammatory activity using carrageenan-induced paw edema method in rat at a dose 25 mg/kg ip after 1 hr", "format": "functional", "settings": "route intraperitoneal"}, "[8]": {"test": "Lethal dose is determined in mice (po)", "format": "toxicity, organism-based", "settings": "mouse, in vivo"}, "Rattus norvegicus [9]": {"tested_on": "Rattus norvegicus", "test": "Compound is evaluated for antiinflammatory activity using carrageenan-induced paw edema method in rat at a dose 5 mg/kg ip after 3h", "format": "functional", "settings": "route intraperitoneal"}, "Rattus norvegicus [10]": {"tested_on": "Rattus norvegicus", "test": "Compound is evaluated for antiinflammatory activity using carrageenan-induced paw edema method in rat at a dose 5 mg/kg ip after 1 hr", "format": "functional", "settings": "route intraperitoneal"}, "Rattus norvegicus [11]": {"tested_on": "Rattus norvegicus", "test": "Compound is evaluated for antiinflammatory activity using carrageenan-induced paw edema method in rat at a dose 5 mg/kg ip after 2 hr", "format": "functional", "settings": "route intraperitoneal"}, "Rattus norvegicus [12]": {"tested_on": "Rattus norvegicus", "test": "Compound is evaluated for antiinflammatory activity using carrageenan-induced paw edema method in rat at a dose 30 mg/kg ip after 3h", "format": "functional", "settings": "route intraperitoneal"}, "Rattus norvegicus [13]": {"tested_on": "Rattus norvegicus", "test": "Compound is evaluated for antiinflammatory activity using carrageenan-induced paw edema method in rat at a dose 30 mg/kg ip after 1 hr", "format": "functional", "settings": "route intraperitoneal"}, "Rattus norvegicus [14]": {"tested_on": "Rattus norvegicus", "test": "Compound is evaluated for antiinflammatory activity using carrageenan-induced paw edema method in rat at a dose 30 mg/kg ip after 2 hr", "format": "functional", "settings": "route intraperitoneal"}, "Rattus norvegicus [15]": {"tested_on": "Rattus norvegicus", "test": "Compound is evaluated for antiinflammatory activity using carrageenan-induced paw edema method in rat at a dose 10 mg/kg ip after 1 hr", "format": "functional", "settings": "route intraperitoneal"}, "Rattus norvegicus [16]": {"tested_on": "Rattus norvegicus", "test": "Compound is evaluated for antiinflammatory activity using carrageenan-induced paw edema method in rat at a dose 10 mg/kg ip after 2 hr", "format": "functional", "settings": "route intraperitoneal"}, "Rattus norvegicus [17]": {"tested_on": "Rattus norvegicus", "test": "Compound is evaluated for antiinflammatory activity using carrageenan-induced paw edema method in rat at a dose 10 mg/kg ip after 3h", "format": "functional", "settings": "route intraperitoneal"}, "Rattus norvegicus [18]": {"tested_on": "Rattus norvegicus", "test": "Compound is evaluated for antiinflammatory activity using carrageenan-induced paw edema method in rat at a dose 200 mg/kg po after 3h", "format": "functional"}, "Rattus norvegicus [19]": {"tested_on": "Rattus norvegicus", "test": "Compound is evaluated for antiinflammatory activity using carrageenan-induced paw edema method in rat at a dose 200 mg/kg po after 2 hr", "format": "functional"}, "Rattus norvegicus [20]": {"tested_on": "Rattus norvegicus", "test": "Compound is evaluated for antiinflammatory activity using carrageenan-induced paw edema method in rat at a dose 200 mg/kg po after 1 hr", "format": "functional"}}}
{"compound": "CN(C(=O)c1ccc(Cl)cc1)c1ccc(Sc2ccccc2)cc1", "values": [{"measurement": "LD50", "setting": "[1]", "result": "> 1000", "unit": "mg/kg"}, {"measurement": "Reduction", "setting": "Rattus norvegicus [2]", "result": 60, "unit": "%"}, {"measurement": "Reduction", "setting": "Rattus norvegicus [3]", "result": 65, "unit": "%"}, {"measurement": "Reduction", "setting": "Rattus norvegicus [4]", "result": 48, "unit": "%"}]}
{"compound": "CCN(CC)CC(=O)Nc1ccc(Sc2ccccc2)cc1", "values": [{"measurement": "Reduction", "setting": "Rattus norvegicus [5]", "result": 47, "unit": "%"}, {"measurement": "LD50", "setting": "[1]", "result": 45, "unit": "mg/kg"}, {"measurement": "Reduction", "setting": "Rattus norvegicus [6]", "result": 22, "unit": "%"}, {"measurement": "Reduction", "setting": "Rattus norvegicus [7]", "result": 30, "unit": "%"}, {"measurement": "LD50", "setting": "[8]", "result": 275, "unit": "mg/kg"}]}
{"compound": "CN(C)CC(=O)N(C)c1ccc(Sc2ccccc2)cc1", "values": [{"measurement": "LD50", "setting": "[1]", "result": 50, "unit": "mg/kg"}, {"measurement": "Reduction", "setting": "Rattus norvegicus [9]", "result": 22, "unit": "%"}, {"measurement": "Reduction", "setting": "Rattus norvegicus [10]", "result": 18, "unit": "%"}, {"measurement": "Reduction", "setting": "Rattus norvegicus [11]", "result": 14, "unit": "%"}]}
{"compound": "CCN(CC)CC(=O)Nc1ccccc1Sc1ccc(Cl)cc1", "values": [{"measurement": "LD50", "setting": "[1]", "result": 55, "unit": "mg/kg"}, {"measurement": "Reduction", "setting": "Rattus norvegicus [12]", "result": 68, "unit": "%"}, {"measurement": "Reduction", "setting": "Rattus norvegicus [13]", "result": 65, "unit": "%"}, {"measurement": "Reduction", "setting": "Rattus norvegicus [14]", "result": 63, "unit": "%"}, {"measurement": "LD50", "setting": "[8]", "result": 35, "unit": "mg/kg"}]}
{"compound": "CN(C(=O)CN1CCCC1)c1ccc(Sc2ccccc2)cc1", "values": [{"measurement": "LD50", "setting": "[1]", "result": 35, "unit": "mg/kg"}, {"measurement": "Reduction", "setting": "Rattus norvegicus [9]", "result": 23, "unit": "%"}, {"measurement": "Reduction", "setting": "Rattus norvegicus [10]", "result": 18, "unit": "%"}, {"measurement": "Reduction", "setting": "Rattus norvegicus [11]", "result": 18, "unit": "%"}]}
{"compound": "CCN(CC)CC(=O)N(C)c1ccc(Sc2ccc(Cl)cc2)cc1", "values": [{"measurement": "LD50", "setting": "[1]", "result": 45, "unit": "mg/kg"}, {"measurement": "Reduction", "setting": "Rattus norvegicus [15]", "result": 13, "unit": "%"}, {"measurement": "LD50", "setting": "[8]", "result": 175, "unit": "mg/kg"}, {"measurement": "Reduction", "setting": "Rattus norvegicus [16]", "result": 15, "unit": "%"}, {"measurement": "Reduction", "setting": "Rattus norvegicus [17]", "result": 0, "unit": "%"}]}
{"compound": "CN(C(=O)C1CN(c2ccccc2)C(=O)C1=O)c1ccc(Sc2ccccc2)cc1", "note": "(stereo unspecified)", "values": [{"measurement": "Reduction", "setting": "Rattus norvegicus [18]", "result": 0, "unit": "%"}, {"measurement": "LD50", "setting": "[8]", "result": "> 1000", "unit": "mg/kg"}, {"measurement": "Reduction", "setting": "Rattus norvegicus [19]", "result": 5, "unit": "%"}, {"measurement": "Reduction", "setting": "Rattus norvegicus [20]", "result": 36, "unit": "%"}]}
{"compound": "CN(C(=O)C1CC1)c1ccc(Sc2ccccc2)cc1", "values": [{"measurement": "LD50", "setting": "[1]", "result": "> 1000", "unit": "mg/kg"}, {"measurement": "Reduction", "setting": "Rattus norvegicus [2]", "result": 48, "unit": "%"}, {"measurement": "Reduction", "setting": "Rattus norvegicus [3]", "result": 57, "unit": "%"}, {"measurement": "Reduction", "setting": "Rattus norvegicus [4]", "result": 37, "unit": "%"}]}
{"compound": "CN1CCN(CC(=O)N(C)c2ccc(Sc3ccccc3)cc2)CC1", "values": [{"measurement": "LD50", "setting": "[1]", "result": 75, "unit": "mg/kg"}, {"measurement": "Reduction", "setting": "Rattus norvegicus [15]", "result": 45, "unit": "%"}, {"measurement": "Reduction", "setting": "Rattus norvegicus [16]", "result": 30, "unit": "%"}, {"measurement": "Reduction", "setting": "Rattus norvegicus [17]", "result": 38, "unit": "%"}]}
{"compound": "CN1CC(C(=O)N(C)c2ccc(Sc3ccccc3)cc2)C(=O)C1=O", "note": "(stereo unspecified)", "values": [{"measurement": "LD50", "setting": "[1]", "result": "> 1000", "unit": "mg/kg"}, {"measurement": "Reduction", "setting": "Rattus norvegicus [18]", "result": 0, "unit": "%"}, {"measurement": "Reduction", "setting": "Rattus norvegicus [19]", "result": 0, "unit": "%"}, {"measurement": "Reduction", "setting": "Rattus norvegicus [20]", "result": 36, "unit": "%"}]}
{"compound": "CN(C(=O)CN1CCCCC1)c1ccc(Sc2ccccc2)cc1", "values": [{"measurement": "LD50", "setting": "[1]", "result": 25, "unit": "mg/kg"}, {"measurement": "Reduction", "setting": "Rattus norvegicus [9]", "result": 34, "unit": "%"}, {"measurement": "Reduction", "setting": "Rattus norvegicus [10]", "result": 40, "unit": "%"}, {"measurement": "Reduction", "setting": "Rattus norvegicus [11]", "result": 29, "unit": "%"}]}
{"compound": "CC(C)N1CC(C(=O)N(C)c2ccc(Sc3ccccc3)cc2)C(=O)C1=O", "note": "(stereo unspecified)", "values": [{"measurement": "Reduction", "setting": "Rattus norvegicus [18]", "result": 18, "unit": "%"}, {"measurement": "LD50", "setting": "[8]", "result": "> 1000", "unit": "mg/kg"}, {"measurement": "Reduction", "setting": "Rattus norvegicus [19]", "result": 26, "unit": "%"}, {"measurement": "Reduction", "setting": "Rattus norvegicus [20]", "result": 30, "unit": "%"}]}
{"compound": "CN(C(=O)CN1CCOCC1)c1ccc(Sc2ccccc2)cc1", "values": [{"measurement": "LD50", "setting": "[1]", "result": 75, "unit": "mg/kg"}, {"measurement": "Reduction", "setting": "Rattus norvegicus [15]", "result": 55, "unit": "%"}, {"measurement": "Reduction", "setting": "Rattus norvegicus [16]", "result": 45, "unit": "%"}, {"measurement": "Reduction", "setting": "Rattus norvegicus [17]", "result": 43, "unit": "%"}]}
{"compound": "CC(=O)Oc1ccccc1C(=O)N(C)c1ccc(Sc2ccccc2)cc1", "values": [{"measurement": "LD50", "setting": "[1]", "result": 1000, "unit": "mg/kg"}, {"measurement": "Reduction", "setting": "Rattus norvegicus [2]", "result": 55, "unit": "%"}, {"measurement": "Reduction", "setting": "Rattus norvegicus [3]", "result": 59, "unit": "%"}, {"measurement": "Reduction", "setting": "Rattus norvegicus [4]", "result": 32, "unit": "%"}]}
{"compound": "CCOC(=O)C1=C(Nc2ccc(Sc3ccccc3)cc2)C(=O)N(C(C)C)C1", "values": [{"measurement": "Reduction", "setting": "Rattus norvegicus [18]", "result": 30, "unit": "%"}, {"measurement": "LD50", "setting": "[8]", "result": "> 1000", "unit": "mg/kg"}, {"measurement": "Reduction", "setting": "Rattus norvegicus [19]", "result": 30, "unit": "%"}, {"measurement": "Reduction", "setting": "Rattus norvegicus [20]", "result": 22, "unit": "%"}]}
{"compound": "CCN(CC)CC(=O)N(C)c1ccc(Sc2ccccc2)cc1", "values": [{"measurement": "LD50", "setting": "[1]", "result": 30, "unit": "mg/kg"}, {"measurement": "Reduction", "setting": "Rattus norvegicus [9]", "result": 52, "unit": "%"}, {"measurement": "Reduction", "setting": "Rattus norvegicus [10]", "result": 53, "unit": "%"}, {"measurement": "LD50", "setting": "[8]", "result": 140, "unit": "mg/kg"}, {"measurement": "Reduction", "setting": "Rattus norvegicus [11]", "result": 50, "unit": "%"}]}
{"compound": "CCN(CC)CC(=O)Nc1ccc(Sc2ccc(Cl)cc2)cc1", "values": [{"measurement": "Reduction", "setting": "Rattus norvegicus [5]", "result": 74, "unit": "%"}, {"measurement": "LD50", "setting": "[1]", "result": 45, "unit": "mg/kg"}, {"measurement": "Reduction", "setting": "Rattus norvegicus [6]", "result": 72, "unit": "%"}, {"measurement": "Reduction", "setting": "Rattus norvegicus [7]", "result": 56, "unit": "%"}, {"measurement": "LD50", "setting": "[8]", "result": 275, "unit": "mg/kg"}]}
{"compound": "COc1ccc2c(c1)c(CC(=O)O)c(C)n2C(=O)c1ccc(Cl)cc1", "note": "[INDOMETHACIN]", "values": [{"measurement": "Reduction", "setting": "Rattus norvegicus [15]", "result": 61, "unit": "%"}, {"measurement": "Reduction", "setting": "Rattus norvegicus [16]", "result": 65, "unit": "%"}, {"measurement": "Reduction", "setting": "Rattus norvegicus [17]", "result": 67, "unit": "%"}]}
